This test deals with T1, mouse c-fms (Mus musculus, UniProt P09581).
T1 construct: Macrophage-like cell line BAC-1.2F5 which expresses c-fms as a M-CSF receptor on cell membranes; endogenous in cells; host or cells: BAC-1.2F5 mouse macrophage-like cell line
T1 sequence (P09581 20-977): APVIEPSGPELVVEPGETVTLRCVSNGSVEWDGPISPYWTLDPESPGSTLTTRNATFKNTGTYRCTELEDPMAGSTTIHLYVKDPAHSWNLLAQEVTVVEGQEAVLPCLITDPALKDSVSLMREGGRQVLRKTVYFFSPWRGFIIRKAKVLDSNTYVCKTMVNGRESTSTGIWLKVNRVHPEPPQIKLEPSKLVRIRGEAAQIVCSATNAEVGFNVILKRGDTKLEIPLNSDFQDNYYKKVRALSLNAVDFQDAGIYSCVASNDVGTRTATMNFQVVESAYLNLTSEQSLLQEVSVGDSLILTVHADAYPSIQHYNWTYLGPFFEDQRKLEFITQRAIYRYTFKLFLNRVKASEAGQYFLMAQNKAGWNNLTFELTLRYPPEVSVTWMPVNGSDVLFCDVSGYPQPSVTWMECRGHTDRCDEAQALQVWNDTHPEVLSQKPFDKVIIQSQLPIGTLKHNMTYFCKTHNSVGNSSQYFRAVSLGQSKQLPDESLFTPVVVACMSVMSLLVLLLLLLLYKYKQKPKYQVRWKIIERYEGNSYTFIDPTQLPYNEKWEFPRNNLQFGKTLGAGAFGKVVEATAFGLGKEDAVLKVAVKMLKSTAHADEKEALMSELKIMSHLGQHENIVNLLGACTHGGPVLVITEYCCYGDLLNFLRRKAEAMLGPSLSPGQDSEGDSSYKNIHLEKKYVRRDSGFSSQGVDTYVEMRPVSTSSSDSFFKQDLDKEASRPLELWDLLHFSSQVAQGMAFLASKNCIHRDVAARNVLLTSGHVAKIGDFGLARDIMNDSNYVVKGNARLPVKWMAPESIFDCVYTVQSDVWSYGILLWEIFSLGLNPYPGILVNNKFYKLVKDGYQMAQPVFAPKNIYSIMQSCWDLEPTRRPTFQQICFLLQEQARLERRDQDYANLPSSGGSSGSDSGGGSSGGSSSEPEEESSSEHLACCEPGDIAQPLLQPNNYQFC
In words: Inhibition of c-fms autophosphorylation in macrophage-like cell line BAC-1.2F5 by M-CSF stimulation (ELISA). Type of test: cell-based. To be noted: BAC-1.2F5 cells, human recombinant M-CSF 50 ng/ml, read-out: c-fms autophosphorylation 50% inhibitory concentration (IC50). In a few lines: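 BAC-1.2F5 cells serum-starved (0.1% FCS) 12 h, preincubated with compound 1 h at 37° C, then stimulated 6 min with 50 ng/ml human recombinant M-CSF. Lysates captured on anti-phosphotyrosine plates, detected with anti-c-fms antiserum and peroxidase read-out at 450 nm. IC50 from inhibition normalised between ±M-CSF controls.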
(An ELISA detects its analyte on a solid surface through an enzyme-linked reagent.)

Consider `COc1cc2nccc(Oc3ccc(NC(=O)N[C@H](C)c4cccc(Br)c4)cc3OC)c2cc1OC` [Example 61, N-[(1R)-1-(3-Bromophenyl)ethyl]-N′-{4-[(6,7-dimethoxy-4-quinolyl)oxy]-3-methoxyphenyl}urea], for which the IC50 turned out to be 44.3 nM. Consider `COc1cc2nccc(Oc3ccc(NC(=O)N[C@H](C)c4cccc(Br)c4)c(C)c3C)c2cc1OC` [Example 62, N-[(1R)-1-(3-Bromophenyl)ethyl]-N′-{4-[(6,7-dimethoxy-4-quinolyl)oxy]-2,3-dimethylphenyl}urea], for which the IC50 amounted to 29.4 nM. To `COc1cc2nccc(Oc3ccc(NC(=O)N[C@H](C)c4cccc(Br)c4)c(F)c3)c2cc1OC` [Example 63, N-[(1R)-1-(3-Bromophenyl)ethyl]-N′-{4-[(6,7-dimethoxy-4-quinolyl)oxy]-2-fluorophenyl}urea] belongs 30.9 nM; to `COc1cc2c(Oc3ccc(NC(=O)NC(C)c4ccc(F)cc4)cc3F)ccnc2cc1OCCCN1CCOCC1` (centres unmarked) [Example 64, N-(3-Fluoro-4-{[6-methoxy-7-(3-morpholinopropoxy)-4-quinolyl]oxy}phenyl)-N′-[1-(4-fluorophenyl)ethyl]urea], 9.4 nM.

In the case of `COc1cc2c(Oc3ccc(NC(=O)NC(C)c4ccc(F)c(F)c4)cc3F)ccnc2cc1OCCCN1CCOCC1` (centres unmarked) [Example 65, N-[1-(3,4-Difluorophenyl)ethyl]-N′-(3-fluoro-4-{[6-methoxy-7-(3-morpholinopropoxy)-4-quinolyl]oxy}phenyl)urea], the IC50 is 13.9 nM. For the molecule `COc1cc2c(Oc3ccc(NC(=O)NC(C)c4ccc(F)cc4F)cc3F)ccnc2cc1OCCCN1CCOCC1` (centres unmarked) [Example 66, N-[1-(2,4-Difluorophenyl)ethyl]-N′-(3-fluoro-4-{[6-methoxy-7-(3-morpholinopropoxy)-4-quinolyl]oxy}phenyl)urea], the IC50 is 14.7 nM. As to `COc1cc2c(Oc3ccc(NC(=O)NC(C)c4ccc(F)cc4)c(F)c3)ccnc2cc1OCCCN1CCOCC1` (centres unmarked) [Example 67, N-(2-Fluoro-4-{[6-methoxy-7-(3-morpholinopropoxy)-4-quinolyl]oxy}phenyl)-N′-[1-(4-fluorophenyl)ethyl]urea], the IC50 came to 5.7 nM.

With `COc1cc2c(Oc3ccc(NC(=O)NC(C)c4ccc(F)c(F)c4)c(F)c3)ccnc2cc1OCCCN1CCOCC1` (centres unmarked) [Example 68, N-[1-(3,4-Difluorophenyl)ethyl]-N′-(2-fluoro-4-{[6-methoxy-7-(3-morpholinopropoxy)-4-quinolyl]oxy}phenyl)urea], the IC50 is 9.8 nM. Regarding `COc1cc2c(Oc3ccc(NC(=O)NC(C)c4ccc(F)cc4F)c(F)c3)ccnc2cc1OCCCN1CCOCC1` (centres unmarked) [Example 69, N-[1-(2,4-Difluorophenyl)ethyl]-N′-(2-fluoro-4-{[6-methoxy-7-(3-morpholinopropoxy)-4-quinolyl]oxy}phenyl)urea], the IC50 is 11.5 nM.

As for `COc1cc2nccc(Oc3ccc(NC(=O)NC(C)c4nccs4)c(F)c3)c2cc1OC` (centres unmarked) [Example 70, N-{4-[(6,7-Dimethoxy-4-quinolyl)oxy]-2-fluorophenyl}-N′-[1-(1,3-thiazol-2-yl)ethyl]urea], the IC50 was found to be 3.6 nM. In the case of `COc1cc2nccc(Oc3ccc(NC(=O)N[C@@H](C)c4nccs4)c(F)c3)c2cc1OC` [Example 71, N-{4-[(6,7-Dimethoxy-4-quinolyl)oxy]-2-fluorophenyl}-N′-[(1S)-1-(1,3-thiazol-2-yl)ethyl]urea], the IC50 stood at 3 nM. Take `COc1cc2nccc(Oc3ccc(NC(=O)N[C@H](C)c4nccs4)c(F)c3)c2cc1OC` [Example 72, N-{4-[(6,7-Dimethoxy-4-quinolyl)oxy]-2-fluorophenyl}-N′-[(1R)-1-(1,3-thiazol-2-yl)ethyl]urea]: the IC50 is 4.9 nM. For `COc1cc2nccc(Oc3ccc(NC(=O)NC(C)c4nccs4)cc3F)c2cc1OC` (centres unmarked) [Example 73, N-{4-[(6,7-Dimethoxy-4-quinolyl)oxy]-3-fluorophenyl}-N′-[1-(1,3-thiazol-2-yl)ethyl]urea], the IC50 was found to be 3 nM. On to `COc1cc(Oc2ccnc3cc(OC)c(OC)cc23)ccc1NC(=O)NC(C)c1nccs1` (centres unmarked) [Example 74, N-{4-[(6,7-Dimethoxy-4-quinolyl)oxy]-2-methoxyphenyl}-N′-[1-(1,3-thiazol-2-yl)ethyl]urea], for which the IC50 was determined as 5 nM.

As for `COc1cc2nccc(Oc3ccc(NC(=O)NC(C)c4nccs4)cc3)c2cc1OC` (centres unmarked) [Example 77, N-{4-[(6,7-Dimethoxy-4-quinolyl)oxy]phenyl}-N′-[1-(1,3-thiazol-2-yl)ethyl]urea], the IC50 was determined as 4.7 nM.

For the molecule `COc1cc2nccc(Oc3ccc(NC(=O)N[C@@H](C)c4nccs4)cc3)c2cc1OC` [Example 78, N-{4-[(6,7-Dimethoxy-4-quinolyl)oxy]phenyl}-N′-[(S)-1-(1,3-thiazol-2-yl)ethyl]urea], the IC50 turned out to be 2.9 nM. For the molecule `COc1cc2nccc(Oc3ccc(NC(=O)N[C@H](C)c4nccs4)cc3)c2cc1OC` [Example 79, N-{4-[(6,7-Dimethoxy-4-quinolyl)oxy]phenyl}-N′-[(1R)-1-(1,3-thiazol-2-yl)ethyl]urea], the IC50 amounted to 6.9 nM. `COc1cc2nccc(Oc3ccc(NC(=O)NC(C)c4nccs4)cc3OC)c2cc1OC` (centres unmarked) [Example 80, N-{4-[(6,7-Dimethoxy-4-quinolyl)oxy]-3-methoxyphenyl}-N′-[1-(1,3-thiazol-2-yl)ethyl]urea]: the IC50 was found to be 6.2 nM. As to `COc1cc2nccc(Oc3ccc(NC(=O)N[C@@H](C)c4nccs4)cc3OC)c2cc1OC` [Example 81, N-{4-[(6,7-Dimethoxy-4-quinolyl)oxy]-3-methoxyphenyl}-N′-[(1S)-1-(1,3-thiazol-2-yl)ethyl]urea], the IC50 was determined as 6.2 nM.

Regarding `COc1cc2nccc(Oc3ccc(NC(=O)N[C@H](C)c4nccs4)cc3OC)c2cc1OC` [Example 82, N-{4-[(6,7-Dimethoxy-4-quinolyl)oxy]-3-methoxyphenyl}-N′-[(1R)-1-(1,3-thiazol-2-yl)ethyl]urea], the IC50 turned out to be 8.9 nM. For `COc1cc2nccc(Oc3ccc(NC(=O)NC(C)c4nccs4)c(C(F)(F)F)c3)c2cc1OC` (centres unmarked) [Example 83, N-[4-[(6,7-Dimethoxy-4-quinolyl)oxy]-2-(trifluoromethyl)phenyl]-N′-[1-(1,3-thiazol-2-yl)ethyl]urea], the IC50 is 10.2 nM. For `COc1cc2nccc(Oc3ccc(NC(=O)N[C@@H](C)c4nccs4)c(C(F)(F)F)c3)c2cc1OC` [Example 84, N-[4-[(6,7-Dimethoxy-4-quinolyl)oxy]-2-(trifluoromethyl)phenyl]-N′-[(1S)-1-(1,3-thiazol-2-yl)ethyl]urea], the IC50 stood at 10.2 nM. For the molecule `COc1cc2nccc(Oc3ccc(NC(=O)N[C@H](C)c4nccs4)c(C(F)(F)F)c3)c2cc1OC` [Example 85, N-[4-[(6,7-Dimethoxy-4-quinolyl)oxy]-2-(trifluoromethyl)phenyl]-N′-[(1R)-1-(1,3-thiazol-2-yl)ethyl]urea], the IC50 came to 17.4 nM. `COc1cc2nccc(Oc3cc(C)c(NC(=O)N[C@@H](C)c4nccs4)cc3C)c2cc1OC` [Example 86, N-{4-[(6,7-Dimethoxy-4-quinolyl)oxy]-2,5-dimethylphenyl}-N′-[(1S)-1-(1,3-thiazol-2-yl)ethyl]urea]: the IC50 came to 12.5 nM. On to `COc1cc2nccc(Oc3cc(C)c(NC(=O)N[C@H](C)c4nccs4)cc3C)c2cc1OC` [Example 87, N-{4-[(6,7-Dimethoxy-4-quinolyl)oxy]-2,5-dimethylphenyl}-N′-[(1R)-1-(1,3-thiazol-2-yl)ethyl]urea], for which the IC50 was 26.5 nM.

On to `COc1cc2nccc(Oc3ccc(NC(=O)NC(C)c4nc(C)cs4)c(F)c3)c2cc1OC` (centres unmarked) [Example 88, N-{4-[(6,7-Dimethoxy-4-quinolyl)oxy]-2-fluorophenyl}-N′-[1-(4-methyl-1,3-thiazol-2-yl)ethyl]urea], for which the IC50 stood at 2.9 nM.

As to `COc1cc2nccc(Oc3ccc(NC(=O)NC(C)c4nc(C)cs4)cc3F)c2cc1OC` (centres unmarked) [Example 89, N-{4-[(6,7-Dimethoxy-4-quinolyl)oxy]-3-fluorophenyl}-N′-[1-(4-methyl-1,3-thiazol-2-yl)ethyl]urea], the IC50 turned out to be 3.1 nM. Turning to `COc1cc(Oc2ccnc3cc(OC)c(OC)cc23)ccc1NC(=O)NC(C)c1nc(C)cs1` (centres unmarked) [Example 90, N-{4-[(6,7-Dimethoxy-4-quinolyl)oxy]-2-methoxyphenyl}-N′-[1-(4-methyl-1,3-thiazol-2-yl)ethyl]urea], the IC50 was determined as 3.6 nM. On to `COc1cc2nccc(Oc3ccc(NC(=O)NC(C)c4nc(C)cs4)cc3)c2cc1OC` (centres unmarked) [Example 91, N-{4-[(6,7-Dimethoxy-4-quinolyl)oxy]phenyl}-N′-[1-(4-methyl-1,3-thiazol-2-yl)ethyl]urea], for which the IC50 is 3.2 nM.

The record behind these values is patent publication US7598258B2, “Quinoline derivatives and quinazoline derivatives inhibiting autophosphorylation of macrophage colony stimulating factor receptor” (Kirin Beer Kabushiki Kaisha, priority 2002, dated 2009).
